Results: ChEMBL document CHEMBL5696442, “Discovery of type II inhibitors of TGFβ-activated kinase 1 (TAK1) and mitogen-activated protein kinase kinase kinase kinase 2 (MAP4K2)” (J Med Chem, 2015)
Active and inactive are the calls of the source. The rule behind the calls is not given here.

Legend:
[1] = target: T1, Serine/threonine-protein kinase ULK1 (Homo sapiens) (UniProt O75385); assay: Inhibition of ULK1 Lys2 labeling site in human A-375 cells at 0.05 uM by KiNativ Profiling analysis relative to control; assay type: cell-based
T1 sequence (whole entry): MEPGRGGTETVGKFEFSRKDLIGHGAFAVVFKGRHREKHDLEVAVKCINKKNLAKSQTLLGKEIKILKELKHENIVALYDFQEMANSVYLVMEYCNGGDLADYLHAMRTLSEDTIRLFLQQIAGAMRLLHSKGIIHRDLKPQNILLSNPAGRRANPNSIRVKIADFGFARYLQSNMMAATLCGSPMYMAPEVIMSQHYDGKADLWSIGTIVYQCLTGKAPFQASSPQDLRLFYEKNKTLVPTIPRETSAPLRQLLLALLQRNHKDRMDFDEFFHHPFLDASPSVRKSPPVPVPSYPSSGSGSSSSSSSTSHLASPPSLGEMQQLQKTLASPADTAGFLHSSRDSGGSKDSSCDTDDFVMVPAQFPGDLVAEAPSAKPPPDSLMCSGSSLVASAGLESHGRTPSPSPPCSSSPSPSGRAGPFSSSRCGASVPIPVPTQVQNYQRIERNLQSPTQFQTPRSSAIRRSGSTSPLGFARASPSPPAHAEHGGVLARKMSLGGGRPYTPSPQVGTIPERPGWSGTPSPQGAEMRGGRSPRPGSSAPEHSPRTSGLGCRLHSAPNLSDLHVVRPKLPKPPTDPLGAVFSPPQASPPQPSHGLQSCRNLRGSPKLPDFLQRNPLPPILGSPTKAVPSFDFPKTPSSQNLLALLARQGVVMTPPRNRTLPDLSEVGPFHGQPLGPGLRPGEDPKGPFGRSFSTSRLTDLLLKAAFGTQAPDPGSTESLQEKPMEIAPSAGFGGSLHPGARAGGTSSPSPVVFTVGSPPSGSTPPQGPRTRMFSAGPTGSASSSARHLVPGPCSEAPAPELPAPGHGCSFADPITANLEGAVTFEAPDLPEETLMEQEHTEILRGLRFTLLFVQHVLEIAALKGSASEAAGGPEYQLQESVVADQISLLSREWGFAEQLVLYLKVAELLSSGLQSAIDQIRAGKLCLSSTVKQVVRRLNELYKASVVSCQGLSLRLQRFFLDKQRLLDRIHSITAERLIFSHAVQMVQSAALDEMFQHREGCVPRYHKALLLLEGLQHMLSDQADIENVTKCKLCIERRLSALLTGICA

[2] = Inhibition of MLK1/4 K2 labeling site in human Huh-7 cells at 10 uM by KiNativ Profiling analysis relative to control; settings: condition cancer
[3] = target: MAP kinase-activated protein kinase 2 (Homo sapiens) (UniProt P49137); assay: Inhibition of MAPKAPK2 (unknown origin) at 10 uM by Ambit Kinomescan binding assay
Chain of MAP kinase-activated protein kinase 2 (Homo sapiens) (P49137 whole entry, looked up): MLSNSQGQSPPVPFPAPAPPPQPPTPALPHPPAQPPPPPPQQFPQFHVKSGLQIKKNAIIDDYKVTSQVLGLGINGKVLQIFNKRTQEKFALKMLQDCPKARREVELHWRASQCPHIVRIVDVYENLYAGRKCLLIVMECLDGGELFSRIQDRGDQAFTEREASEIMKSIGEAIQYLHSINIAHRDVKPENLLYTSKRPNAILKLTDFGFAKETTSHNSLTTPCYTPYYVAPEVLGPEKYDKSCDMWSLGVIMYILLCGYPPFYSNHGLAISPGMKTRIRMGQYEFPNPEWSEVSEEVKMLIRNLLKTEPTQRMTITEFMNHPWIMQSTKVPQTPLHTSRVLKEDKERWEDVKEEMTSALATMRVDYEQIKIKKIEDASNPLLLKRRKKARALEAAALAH

[4] = target: T2, Serine/threonine-protein kinase ULK3 (Homo sapiens) (UniProt Q6PHR2); assay: Inhibition of ULK3 K1 labeling site in human Huh-7 cells at 10 uM by KiNativ Profiling analysis relative to control; assay type: cell-based
T2 sequence (whole entry): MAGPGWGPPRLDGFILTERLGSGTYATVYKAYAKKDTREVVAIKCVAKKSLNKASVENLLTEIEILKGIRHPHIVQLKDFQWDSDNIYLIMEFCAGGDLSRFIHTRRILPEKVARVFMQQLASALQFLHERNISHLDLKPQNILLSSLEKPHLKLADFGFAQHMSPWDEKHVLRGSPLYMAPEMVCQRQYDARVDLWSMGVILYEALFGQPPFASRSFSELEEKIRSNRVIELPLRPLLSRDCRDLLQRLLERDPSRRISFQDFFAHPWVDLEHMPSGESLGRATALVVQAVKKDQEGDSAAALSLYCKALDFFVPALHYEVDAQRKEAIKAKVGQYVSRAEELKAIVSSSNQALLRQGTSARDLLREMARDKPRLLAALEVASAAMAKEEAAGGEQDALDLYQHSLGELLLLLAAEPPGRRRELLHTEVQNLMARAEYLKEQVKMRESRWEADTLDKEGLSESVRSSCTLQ

[5] = target: STE20-like serine/threonine-protein kinase (Homo sapiens) (UniProt Q9H2G2); assay: Inhibition of SLK Lys2 labeling site harbouring IIHRDLKAGNILFTLDGDIK in human Huh-7 cell lysate at 1 uM by KiNativ Profiling analysis relative to control; assay type: subcellular
Chain of STE20-like serine/threonine-protein kinase (Homo sapiens) (Q9H2G2 whole entry, looked up): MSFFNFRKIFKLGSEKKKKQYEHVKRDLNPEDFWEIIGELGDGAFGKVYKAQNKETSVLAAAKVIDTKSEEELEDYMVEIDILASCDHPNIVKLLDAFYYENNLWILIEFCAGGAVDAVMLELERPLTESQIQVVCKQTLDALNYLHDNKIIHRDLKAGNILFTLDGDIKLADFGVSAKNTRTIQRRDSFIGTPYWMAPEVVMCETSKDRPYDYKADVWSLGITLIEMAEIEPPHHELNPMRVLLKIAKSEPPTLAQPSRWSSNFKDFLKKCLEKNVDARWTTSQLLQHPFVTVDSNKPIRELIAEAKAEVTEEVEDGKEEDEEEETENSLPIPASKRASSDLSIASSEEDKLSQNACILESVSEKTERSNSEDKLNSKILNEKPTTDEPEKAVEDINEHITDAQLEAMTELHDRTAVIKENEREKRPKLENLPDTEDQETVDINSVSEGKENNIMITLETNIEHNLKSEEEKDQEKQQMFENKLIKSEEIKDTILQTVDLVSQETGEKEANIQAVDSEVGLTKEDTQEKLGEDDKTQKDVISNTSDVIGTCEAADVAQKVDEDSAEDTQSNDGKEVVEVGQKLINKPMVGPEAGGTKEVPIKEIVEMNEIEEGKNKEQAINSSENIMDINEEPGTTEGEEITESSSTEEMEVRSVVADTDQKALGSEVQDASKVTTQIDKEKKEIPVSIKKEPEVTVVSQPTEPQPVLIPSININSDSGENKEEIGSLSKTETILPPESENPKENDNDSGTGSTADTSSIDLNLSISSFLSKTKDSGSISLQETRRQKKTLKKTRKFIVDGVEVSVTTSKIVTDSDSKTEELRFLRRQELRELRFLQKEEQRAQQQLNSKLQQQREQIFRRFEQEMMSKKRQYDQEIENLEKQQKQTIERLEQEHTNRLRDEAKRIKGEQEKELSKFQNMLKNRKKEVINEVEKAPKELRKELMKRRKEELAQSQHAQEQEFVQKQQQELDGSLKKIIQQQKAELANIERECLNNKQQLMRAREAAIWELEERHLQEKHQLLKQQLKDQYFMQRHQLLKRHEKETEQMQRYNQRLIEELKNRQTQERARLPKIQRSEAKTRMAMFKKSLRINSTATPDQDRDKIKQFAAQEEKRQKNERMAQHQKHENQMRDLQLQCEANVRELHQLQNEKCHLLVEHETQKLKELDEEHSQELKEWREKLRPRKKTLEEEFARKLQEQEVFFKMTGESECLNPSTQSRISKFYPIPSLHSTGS

[6] = target: T3, Serine/threonine-protein kinase D3 (Homo sapiens) (UniProt O94806); assay: Inhibition of PKD3 Lys2 labeling site in human Huh-7 cell lysate at 1 uM by KiNativ Profiling analysis relative to control; assay type: subcellular
T3 sequence (whole entry): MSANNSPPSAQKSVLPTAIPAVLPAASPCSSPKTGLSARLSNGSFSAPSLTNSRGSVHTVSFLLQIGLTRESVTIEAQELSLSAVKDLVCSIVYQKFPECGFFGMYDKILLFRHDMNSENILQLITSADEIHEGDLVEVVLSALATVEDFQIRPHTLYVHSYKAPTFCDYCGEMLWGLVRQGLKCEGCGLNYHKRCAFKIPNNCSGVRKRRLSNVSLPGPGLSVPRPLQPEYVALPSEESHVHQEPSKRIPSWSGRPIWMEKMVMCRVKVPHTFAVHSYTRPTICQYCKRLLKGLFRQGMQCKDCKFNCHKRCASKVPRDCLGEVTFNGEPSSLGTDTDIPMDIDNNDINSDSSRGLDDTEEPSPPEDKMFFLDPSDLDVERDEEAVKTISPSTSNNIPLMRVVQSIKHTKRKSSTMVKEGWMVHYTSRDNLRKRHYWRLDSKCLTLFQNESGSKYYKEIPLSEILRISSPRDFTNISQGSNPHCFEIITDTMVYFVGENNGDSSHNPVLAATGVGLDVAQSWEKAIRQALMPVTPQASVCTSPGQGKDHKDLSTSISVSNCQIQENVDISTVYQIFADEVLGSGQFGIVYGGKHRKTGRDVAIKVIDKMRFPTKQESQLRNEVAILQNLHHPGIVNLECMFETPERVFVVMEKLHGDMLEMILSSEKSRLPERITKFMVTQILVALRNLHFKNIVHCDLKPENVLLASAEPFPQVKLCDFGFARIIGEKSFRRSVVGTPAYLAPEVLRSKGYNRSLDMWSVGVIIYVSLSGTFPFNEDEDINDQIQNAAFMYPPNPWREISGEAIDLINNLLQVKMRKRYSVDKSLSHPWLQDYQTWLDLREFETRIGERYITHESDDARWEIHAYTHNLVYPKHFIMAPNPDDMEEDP

[7] = target: Serine/threonine-protein kinase/endoribonuclease IRE1 (Homo sapiens) (UniProt O75460); assay: Inhibition of ERN1 (unknown origin) at 1 uM by Ambit Kinomescan binding assay relative to control; values are per cent of control
Chain of Serine/threonine-protein kinase/endoribonuclease IRE1 (Homo sapiens) (O75460 19-977 limits assumed): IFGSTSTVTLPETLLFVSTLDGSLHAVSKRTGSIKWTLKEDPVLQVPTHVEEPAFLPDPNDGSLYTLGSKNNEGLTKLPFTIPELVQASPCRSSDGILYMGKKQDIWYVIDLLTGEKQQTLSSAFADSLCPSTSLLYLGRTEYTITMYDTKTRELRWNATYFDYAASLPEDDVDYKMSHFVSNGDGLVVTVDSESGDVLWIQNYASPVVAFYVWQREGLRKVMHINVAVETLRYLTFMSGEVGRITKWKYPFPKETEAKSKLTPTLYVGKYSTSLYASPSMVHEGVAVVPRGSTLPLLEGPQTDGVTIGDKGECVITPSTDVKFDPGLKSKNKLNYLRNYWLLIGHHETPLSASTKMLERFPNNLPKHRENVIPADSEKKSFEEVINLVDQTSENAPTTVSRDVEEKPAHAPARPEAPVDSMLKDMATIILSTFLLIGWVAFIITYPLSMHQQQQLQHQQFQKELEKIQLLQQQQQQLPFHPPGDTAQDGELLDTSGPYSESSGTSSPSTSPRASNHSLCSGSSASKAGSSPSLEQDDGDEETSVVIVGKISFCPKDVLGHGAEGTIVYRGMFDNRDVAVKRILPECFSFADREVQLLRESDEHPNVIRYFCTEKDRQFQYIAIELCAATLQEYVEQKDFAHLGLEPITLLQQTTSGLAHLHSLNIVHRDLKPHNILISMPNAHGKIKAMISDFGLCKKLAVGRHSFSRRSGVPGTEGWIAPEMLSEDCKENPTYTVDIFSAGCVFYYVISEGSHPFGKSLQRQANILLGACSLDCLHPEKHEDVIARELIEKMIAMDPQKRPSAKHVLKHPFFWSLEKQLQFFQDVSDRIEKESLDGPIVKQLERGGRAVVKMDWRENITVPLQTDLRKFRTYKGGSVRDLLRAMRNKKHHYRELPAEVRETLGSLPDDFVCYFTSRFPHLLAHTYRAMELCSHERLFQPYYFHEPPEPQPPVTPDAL

[8] = target: Serine/threonine-protein kinase RIO1 (Homo sapiens) (UniProt Q9BRS2); assay: Inhibition of RIOK1 (unknown origin) at 1 uM by Ambit Kinomescan binding assay relative to control
Chain of Serine/threonine-protein kinase RIO1 (Homo sapiens) (Q9BRS2 whole entry): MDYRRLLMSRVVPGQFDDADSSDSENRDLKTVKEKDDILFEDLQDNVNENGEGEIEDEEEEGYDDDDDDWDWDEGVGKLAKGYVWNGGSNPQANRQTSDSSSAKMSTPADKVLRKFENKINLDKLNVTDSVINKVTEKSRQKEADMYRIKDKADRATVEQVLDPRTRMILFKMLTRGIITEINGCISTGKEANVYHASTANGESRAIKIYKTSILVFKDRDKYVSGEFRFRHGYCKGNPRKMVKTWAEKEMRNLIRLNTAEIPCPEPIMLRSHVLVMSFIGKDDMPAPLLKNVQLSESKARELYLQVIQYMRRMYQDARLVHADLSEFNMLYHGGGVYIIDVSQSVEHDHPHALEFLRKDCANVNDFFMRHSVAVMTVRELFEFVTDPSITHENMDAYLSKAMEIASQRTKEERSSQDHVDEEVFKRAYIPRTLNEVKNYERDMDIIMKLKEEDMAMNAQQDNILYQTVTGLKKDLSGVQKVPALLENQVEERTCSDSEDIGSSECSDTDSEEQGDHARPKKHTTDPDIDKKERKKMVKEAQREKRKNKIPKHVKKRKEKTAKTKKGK

CCN1CCN(Cc2ccc(NC(=O)c3ccc(C)c(Oc4ccnc5[nH]ccc45)c3)cc2C(F)(F)F)CC1
inhibition [1]: 4.8%
inhibition at 10 µM [2]: 2.9%
inhibition [3]: inactive
inhibition [4]: 48%

CNc1cc(Oc2cc(C(=O)Nc3cc(N4CCN(C)CC4)cc(C(F)(F)F)c3)ccc2C)ncn1
inhibition [5]: 24.8%
inhibition [6]: 12.4%

CCN1CCN(Cc2ccc(NC(=O)c3ccc(C)c(/C=C/c4cnc5[nH]ccc5c4OC)c3)cc2C(F)(F)F)CC1
residual activity [7]: 100%
inhibition [8]: 20%
